Reference: US6830883B1, “Method for typing of minor histocompatibility antigen HA-1” (Rijksuniversiteit Leiden, priority 1997, dated 2004)
Where no end group is shown, it is not given here.

What was measured:
[1] = tested on: HA-1 specific T cell clones 3HA15, clone 15 and 5W38 (T2 target cells); test: 51Cr-release reconstitution assay: synthetic peptide on T2 cells with HA-1 specific CTL clones; type: cell-based, human; conditions: for recognition by HA-1 specific CTL clones / reconstitution of the HA-1 epitope: synthetic peptide titrated on T2 cells, 51Cr-release
Description: b. Reconstitution assay with different concentrations of synthetic mH HA-1 peptide with three HA-1 specific T cell clones, 3HA15, clone 15 and 5W38. Background lysis of T2 by the CTL in the absence of any peptide was for 3HA15 4%, for clone 15 10% and for 5W38 2%. Positive control lysis was for 3HA15 46%, for clone 15 47% and 5W38 48 48%.
b. Reconstitution assay with different concentrations of synthetic […] peptide with HA-1 specific T cells. The HA-1^R peptide was titrated and preincubated with T2 cells. Three HA-1 specific T cells clones, 5W38, 3HA15 and clone 15 were added and a 4 hr ^51Cr-release assay was performed. Background lysis of T2 by the CTL in the absence of any peptide was for 3HA15 4%, for clone 15 10% and for 5W38 2%. Positive control lysis was for 3HA15 46%, for clone 15 47% and 5W38 48%.
HPLC fractions and synthetic peptides were tested in a ^51Cr-release assay as described^24. 2500 ^51Cr labeled T2 cells in 25 μl were incubated with 25 μl peptide dissolved in Hanks 50 mM Hepes for 30 minutes at 37° C. Cytotoxic T cells were added in an endvolume of 150 μl. When HPLC peptide fractions were tested, T2 was incubated with 2 μg/ml MA2.1 during the ^51Cr labelling. After 4 hours at 37° C. the supernatants were harvested.

[2] = tested on: recombinant HLA-A2.1 and β2-microglobulin; test: HLA-A2.1 peptide binding assay (inhibition of binding of fluorescent standard peptide […], cell free); set-up: species or system human; conditions: for IC50: cell free, determined on the results of 4 experiments, read-out: IC50 (concentration that inhibited the binding of a fluorescent standard peptide to HLA-A2.1 by 50%); for binder category for HLA-A2.1: classified from the IC50
Description: a. Binding of HA-1^H and HA-1^R peptides to HLA-A2.1. The binding of HA-1^H and HA-1^R peptides were assayed for their ability to inhibit the binding of fluorescent peptide […] to recombinant HLA-A2.1 and β2-microglobulin in a cell free peptide binding assay. One representative experiment is shown.
A quantitative assay for HLA-A2.1 binding peptides based on the inhibition of binding of the flourescent labeled standard peptide Hbc 18-27 F to C6 ([…]) to recombinant HLA-A2.1 protein and β2-microglobulin was used ^26,27. In short, HLA-A2.1 concentrations yielding approximately 40-60% bound fluorescent standard peptide were used with 15 pmol/well (150 nM) β2-microglobulin (Sigma). Various doses of the test peptides were coincubated with 100 fmol/well (1 nM) fluorescent standard peptide. HLA-A2.1 and β2-microglobulin for 1 days at room temperature in the dark in a volume of 100 μl in assay buffer. The percent of MHC-bound fluoescence was determined by gel filtration and the 50% inhibitory dose was deduced for each peptide using one-site competition non-linear regression analysis with the prismgraph software. Synthetic peptides were manufactured on a Abimed 422 multiple peptide synthesizer (Abimed, Langenfeld, Germany) and were more than 90% pure as checked by reverse phase HPLC.

Sequence	EC50 ([1]; 3 different HA-1 specific CTL clones, T2 target cells, 4 hr, read-out: half maximal activity in CML (51Cr-release) assay) [nM]	recognition by HA-1 specific CTL clones / reconstitution of the HA-1 epitope [1]	IC50 [2] [nM]	binder category for HLA-A2.1 [2]	peptide concentration needed for recognition, times higher than for the HA-1^H peptide ([1]; clone 3HA15) [times]	binding affinity for HLA-A2.1, fold lower than the HA-1^H peptide ([2]; HA-1^R versus HA-1^H peptide) [fold]
VLHDDLLEA	0.15 to 0.2	recognition by all three clones	30	high affinity binders		
VLRDDLLEA		One out of three clones (3HA15) tested showed recognition	365	intermediate binders	1000	10
YXTDRVMTV [synthetic peptide of candidate m/z 550; X stands for isoleucine or leucine]		not able to reconstitute the HA-1 epitope				
